Test results as given in the NIST ThermoML archive (doi:10.1021/je400373d).

Key:
[1] = Liquid, Ebulliometric method (Recirculating still)
[2] = Boiling temperature at pressure P; conditions: 101.33 kPa; Liquid; Ebulliometric method (Recirculating still)

CN(CCO)CCO [N-methyldiethanolamine]
[1]
Conditions | vapor or sublimation pressure [kPa]
467.34 K | 20
467.4 K | 20
479.37 K | 30
479.4 K | 30
488.14 K | 40
488.17 K | 40
520.28 K | 101.3

CNCCO [2-(methylamino)ethanol]
[1]
Conditions | vapor or sublimation pressure [kPa]
388 K | 20
388.04 K | 20
397.89 K | 30
397.95 K | 30
405.45 K | 40
405.48 K | 40
431.2 K | 101.3

Conditions | Boiling temperature at pressure P [°C]
[2] | 158.1

OCCO [1,2-ethanediol]
[1]
Conditions | vapor or sublimation pressure [kPa]
422.75 K | 20
422.8 K | 20
433.66 K | 30
433.71 K | 30
441.66 K | 40
441.7 K | 40
470.47 K | 101.3
